Converted amounts (≈) assume the structure as drawn. Positions of bridges follow the written chain, without caps; N, C: chain ends. Non-standard residues stand in square brackets, D forms with d. Residues, ends and D or L forms follow the SMILES beside them. Groups on a side chain read outwards from the residue. *: point of attachment. Palmitoyl(16-(5-tetrazolyl)) = O=C(CCCCCCCCCCCCCCCc1nnn[nH]1)*; Lys(CH2CO2H)2 = N[C@@H](CCCCN(CC(=O)O)CC(=O)O)C(=O)O; C18 diacid = O=C(O)CCCCCCCCCCCCCCCCC(=O)*; C17 diacid = O=C(O)CCCCCCCCCCCCCCCC(=O)*; C16 diacid = O=C(O)CCCCCCCCCCCCCCC(=O)*; C14 diacid = O=C(O)CCCCCCCCCCCCC(=O)*; NTA = O=C(O)CN(CC(=O)O)CC(=O)*; hCys = N[C@@H](CCS)C(=O)O; Dap = NC[C@H](N)C(=O)O; AEEA = NCCOCCOCC(=O)O
Experiments:
[1] = target: MC1 receptor (Homo sapiens, UniProt Q01726); experiment: biochemical
Sequence of MC1 receptor (Q01726 whole entry): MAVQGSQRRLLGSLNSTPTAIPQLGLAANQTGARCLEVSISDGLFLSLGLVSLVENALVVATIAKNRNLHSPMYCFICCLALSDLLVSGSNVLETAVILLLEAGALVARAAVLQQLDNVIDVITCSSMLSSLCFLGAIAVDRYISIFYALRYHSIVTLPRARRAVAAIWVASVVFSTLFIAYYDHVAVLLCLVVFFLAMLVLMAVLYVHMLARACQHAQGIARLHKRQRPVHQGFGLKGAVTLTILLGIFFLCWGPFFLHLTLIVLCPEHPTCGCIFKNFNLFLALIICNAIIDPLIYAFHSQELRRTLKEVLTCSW
Procedure: Assay (IV)—Melanocortin Receptor 1 (MC1) Binding Assay
The MC1 receptor binding assay was performed on BHK cell membranes stably expressing the MC1 receptor. The assay was performed in a total volume of 250 μl: 25 μl of ^125NDP-α-MSH (22 pM in final concentration), 25 μl of test compound/control and 200 μl of cell membrane (25 μg/ml). Test compounds were dissolved in DMSO. Radioactively labeled ligand, membranes and test compounds were diluted in buffer: 25 mM HEPES, pH 7.4, 0.1 mM CaCl2, 1 mM MgSO4, 1 mM EDTA, 0.1% HSA and 0.005% Tween™ 20. Alternatively, HSA may be substituted with ovalbumin. The samples were incubated at 30° C. for 90 min. in Costar round-bottom microtiter plates. Incubation was terminated by filtration on a Packard harvester filtermate. Rapid filtration through Packard Unifilter-96 GF/B filters pre-treated with polyetylenimine (PerkinElmer 6005277). The filters were washed with ice-cold 0.9% NaCl 8-10 times. The plates were air-dried at app. 55° C. for 30 min, and 50 μl Microscint 0 (Packard, cat. No. 6013616) was added to each well. The plates were counted in a Topcounter (1 min/well).
The data were analysed by non-linear regression analysis of binding curves, using the Windows™ program GraphPad™ Prism (GraphPad Software, USA).

[2] = physchem
Procedure: From a stock solution in vehicle, either H2O or 10 mM phosphate, containing 1 mg (as weighed) compound per ml, 8-11 aliquots are withdrawn and pH-adjusted individually with HCl/NaOH, to cover the whole pH range.

For `CC(=O)N[C@H]1CCSSC[C@@H](C(=O)N2CCC[C@H]2C(=O)N2CCC[C@H]2C(=O)N[C@@H](CCCCN)C(=O)N[C@@H](CC(=O)O)C(=O)N[C@@H](CNC(=O)CN(CC(=O)O)CC(=O)O)C(=O)N[C@@H](CCCCNC(=O)COCCOCCNC(=O)CCCCCCCCCCCCCCCc2nnn[nH]2)C(=O)O)NC(=O)[C@H](Cc2c[nH]c3ccccc23)NC(=O)[C@H](CCCNC(=N)N)NC(=O)[C@@H](Cc2ccccc2)NC(=O)[C@H](Cc2c[nH]cn2)NC1=O` [Example 4, Ac-c[homoCys-His-D-Phe-Arg-Trp-Cys]-Pro-Pro-Lys-Asp-Dap(BCMA)-Lys[(2-{2-[16-(tetrazol-5-yl)hexadecanoylamino]ethoxy}ethoxy)acetyl]-OH] (Ac-[hCys]H[dF]RWCPPKD[Dap](NTA)K([AEEA-Palmitoyl(16-(5-tetrazolyl))])-OH; disulfide 1-6), the Ki [1] was > 10 µM.
`CC(=O)N[C@H]1CCCCNC(=O)CC[C@@H](C(=O)N2CCC[C@H]2C(=O)N2CCC[C@H]2C(=O)N[C@@H](Cc2c[nH]cn2)C(=O)N[C@@H](CCC(=O)O)C(=O)N[C@@H](CCCCN(CC(=O)O)CC(=O)O)C(=O)N[C@@H](CCCCNC(=O)COCCOCCNC(=O)CCCCCCCCCCCCCCCC(=O)O)C(N)=O)NC(=O)[C@H](Cc2c[nH]c3ccccc23)NC(=O)[C@H](CCCNC(=N)N)NC(=O)[C@@H](Cc2ccccc2)NC(=O)[C@H](Cc2c[nH]cn2)NC1=O` [Example 7, Ac-c[Lys-His-D-Phe-Arg-Trp-Glu]-Pro-Pro-His-Glu-Lys(biscarboxymethyl)-Lys({2-[2-(16-carboxyhexadecanoylamino)ethoxy]ethoxy}acetyl)-NH2] (Ac-KH[dF]RWEPPHE[Lys(CH2CO2H)2]K([AEEA-C17 diacid])-NH2; lactam 1-6) showed a solubility ([2]; pH 5.8, Solubility Conc.) of 121 µM (≈ 264 µg/mL), a solubility ([2]; pH 6.3, Solubility Conc.) of 173 µM (≈ 378 µg/mL) and a solubility ([2]; pH 6.6, Solubility Conc.) of 295 µM (≈ 645 µg/mL). It also gave a solubility ([2]; pH 6.7, Solubility Conc.) of 408 µM (≈ 892 µg/mL), a solubility ([2]; pH 6.9, Solubility Conc.) of 434 µM (≈ 949 µg/mL) and a solubility ([2]; pH 7.2, Solubility Conc.) of 417 µM (≈ 911 µg/mL). The solubility ([2]; pH 7.4, Solubility Conc.) was 438 µM (≈ 957 µg/mL), the solubility ([2]; pH 7.6, Solubility Conc.) was 448 µM (≈ 979 µg/mL) and the solubility ([2]; pH 8, Solubility Conc.) was 436 µM (≈ 953 µg/mL). The Ki [1] was > 10 µM.
In the case of `CC(=O)N[C@H]1CSSC[C@@H](C(=O)N2CCC[C@H]2C(=O)N2CCC[C@H]2C(=O)N[C@@H](CCCCN)C(=O)N[C@@H](CCC(=O)O)C(=O)N[C@@H](CCCCN(CC(=O)O)CC(=O)O)C(=O)N[C@@H](CCCCNC(=O)COCCOCCNC(=O)CCCCCCCCCCCCCCC(=O)O)C(N)=O)NC(=O)CNC(=O)[C@H](Cc2c[nH]c3ccccc23)NC(=O)[C@H](CCCNC(=N)N)NC(=O)[C@@H](Cc2ccccc2)NC(=O)[C@H](Cc2c[nH]cn2)NC(=O)[C@H](CCC(=O)O)NC1=O` [Example 59, Ac-c[Cys-Glu-His-D-Phe-Arg-Trp-Gly-Cys]-Pro-Pro-Lys-Glu-Lys(biscarboxymethyl)-Lys({2-[2-(15-carboxypentadecanoylamino)ethoxy]ethoxy}acetyl)-NH2] (Ac-CEH[dF]RWGCPPKE[Lys(CH2CO2H)2]K([AEEA-C16 diacid])-NH2; disulfide 1-8), the Ki [1] is reported as > 10 µM.
Molecule `CC(=O)N[C@H]1CCSSC[C@@H](C(=O)N2CCC[C@H]2C(=O)N2CCC[C@H]2C(=O)N[C@@H](CCCCN)C(=O)N[C@@H](CC(=O)O)C(=O)N[C@@H](CNC(=O)CN(CC(=O)O)CC(=O)O)C(=O)N[C@@H](CCCCNC(=O)COCCOCCNC(=O)CCCCCCCCCCCCCCCc2nnn[nH]2)C(N)=O)NC(=O)[C@H](Cc2c[nH]c3ccccc23)NC(=O)[C@H](CCCNC(=N)N)NC(=O)[C@@H](Cc2ccccc2)NC(=O)[C@H](Cc2c[nH]cn2)NC1=O` [Example 61, Ac-c[homoCys-His-D-Phe-Arg-Trp-Cys]-Pro-Pro-Lys-Asp-Dap(BCMA)-Lys[(2-{2-[16-(tetrazol-5-yl)hexadecanoylamino]ethoxy}ethoxy)acetyl]-NH2] (Ac-[hCys]H[dF]RWCPPKD[Dap](NTA)K([AEEA-Palmitoyl(16-(5-tetrazolyl))])-NH2; disulfide 1-6) has a solubility ([2]; pH 3.3, Solubility Conc.) of 623 µM (≈ 1360 µg/mL), a solubility ([2]; pH 4.4, Solubility Conc.) of 575 µM (≈ 1250 µg/mL) and a solubility ([2]; pH 4.8, Solubility Conc.) of 584 µM (≈ 1270 µg/mL). For the same molecule, the solubility ([2]; pH 5.3, Solubility Conc.) was 32 µM (≈ 69.8 µg/mL), the solubility ([2]; pH 6.3, Solubility Conc.) was 26 µM (≈ 56.7 µg/mL) and the solubility ([2]; pH 6.8, Solubility Conc.) was 46 µM (≈ 100 µg/mL). It also gave a solubility ([2]; pH 7.1, Solubility Conc.) of 256 µM (≈ 558 µg/mL), a solubility ([2]; pH 7.3, Solubility Conc.) of 630 µM (≈ 1370 µg/mL) and a solubility ([2]; pH 7.4, Solubility Conc.) of 713 µM (≈ 1550 µg/mL). It also gave a solubility ([2]; pH 7.7, Solubility Conc.) of 805 µM (≈ 1760 µg/mL).
In the case of `CC(=O)N[C@H]1CCSSC[C@@H](C(=O)N[C@@H](CO)C(=O)N2CCC[C@H]2C(=O)N[C@@H](Cc2c[nH]cn2)C(=O)N[C@@H](CCC(=O)O)C(=O)N[C@@H](CCCCN(CC(=O)O)CC(=O)O)C(=O)N[C@@H](CCCCNC(=O)COCCOCCNC(=O)CCCCCCCCCCCCCCCCC(=O)O)C(N)=O)NC(=O)[C@H](Cc2c[nH]c3ccccc23)NC(=O)[C@H](CCCNC(=N)N)NC(=O)[C@@H](Cc2ccccc2)NC(=O)[C@H](Cc2c[nH]cn2)NC1=O` [Example 62, Ac-c[homoCys-His-D-Phe-Arg-Trp-Cys]-Ser-Pro-His-Glu-Lys(biscarboxymethyl)-Lys({2-[2-(17-carboxyheptadecanoylamino)ethoxy]ethoxy}acetyl)-NH2] (Ac-[hCys]H[dF]RWCSPHE[Lys(CH2CO2H)2]K([AEEA-C18 diacid])-NH2; disulfide 1-6), the solubility ([2]; pH 3.4, Solubility Conc.) is reported as 235 µM (≈ 510 µg/mL), the solubility ([2]; pH 5, Solubility Conc.) is reported as 15 µM (≈ 32.5 µg/mL) and the solubility ([2]; pH 6.7, Solubility Conc.) is reported as 41 µM (≈ 88.9 µg/mL). The solubility ([2]; pH 6.9, Solubility Conc.) was 82 µM (≈ 178 µg/mL), the solubility ([2]; pH 7, Solubility Conc.) was 42 µM (≈ 91.1 µg/mL) and the solubility ([2]; pH 7.3, Solubility Conc.) was 241 µM (≈ 523 µg/mL). It also gave a solubility ([2]; pH 7.4, Solubility Conc.) of 243 µM (≈ 527 µg/mL), a solubility ([2]; pH 7.7, Solubility Conc.) of 251 µM (≈ 544 µg/mL) and a solubility ([2]; pH 7.9, Solubility Conc.) of 245 µM (≈ 531 µg/mL). It also gave a solubility ([2]; pH 8, Solubility Conc.) of 233 µM (≈ 505 µg/mL).
With `CC(=O)N[C@H]1CCSSC[C@@H](C(=O)N2CCC[C@H]2C(=O)N2CCC[C@H]2C(=O)N[C@@H](CCCCN)C(=O)N[C@@H](CC(=O)O)C(=O)N[C@@H](CCCCNC(=O)CN(CC(=O)O)CC(=O)O)C(=O)N[C@@H](CCCCNC(=O)COCCOCCNC(=O)CCCCCCCCCCCCCCCc2nnn[nH]2)C(N)=O)NC(=O)[C@H](Cc2c[nH]c3ccccc23)NC(=O)[C@H](CCCNC(=N)N)NC(=O)[C@@H](Cc2ccccc2)NC(=O)[C@H](Cc2c[nH]cn2)NC1=O` [Example 65, Ac-c[homoCys-His-D-Phe-Arg-Trp-Cys]-Pro-Pro-Lys-Asp-Lys(BCMA)-Lys[(2-{2-[16-(tetrazol-5-yl)hexadecanoylamino]ethoxy}ethoxy)acetyl]-NH2] (Ac-[hCys]H[dF]RWCPPKDK(NTA)K([AEEA-Palmitoyl(16-(5-tetrazolyl))])-NH2; disulfide 1-6) the Ki [1] was > 10 µM.
With `CC(=O)N[C@H]1CSSC[C@@H](C(=O)N2CCC[C@H]2C(=O)N2CCC[C@H]2C(=O)N[C@@H](CCCCN)C(=O)N[C@@H](CCC(=O)O)C(=O)N[C@@H](CCC(=O)O)C(=O)N[C@@H](CCCCNC(=O)COCCOCCNC(=O)CCCCCCCCCCCCCCC(=O)O)C(N)=O)NC(=O)CNC(=O)[C@H](Cc2c[nH]c3ccccc23)NC(=O)[C@H](CCCNC(=N)N)NC(=O)[C@@H](Cc2ccccc2)NC(=O)[C@H](Cc2c[nH]cn2)NC(=O)[C@H](CCC(=O)O)NC1=O` [Example 68, Ac-c[Cys-Glu-His-D-Phe-Arg-Trp-Gly-Cys]-Pro-Pro-Lys-Glu-Glu-Lys({2-[2-(15-carboxypentadecanoylamino)ethoxy]ethoxy}acetyl)-NH2] (Ac-CEH[dF]RWGCPPKEEK([AEEA-C16 diacid])-NH2; disulfide 1-8) the solubility ([2]; pH 4, Solubility Conc.) was 167 µM (≈ 367 µg/mL), the solubility ([2]; pH 5.1, Solubility Conc.) was 87 µM (≈ 191 µg/mL) and the solubility ([2]; pH 5.8, Solubility Conc.) was 102 µM (≈ 224 µg/mL). For the same molecule, the solubility ([2]; pH 6.2, Solubility Conc.) was 164 µM (≈ 361 µg/mL), the solubility ([2]; pH 6.9, Solubility Conc.) was 182 µM (≈ 400 µg/mL) and the solubility ([2]; pH 7.3, Solubility Conc.) was 181 µM (≈ 398 µg/mL). For the same molecule, the solubility ([2]; pH 7.5, Solubility Conc.) was 184 µM (≈ 405 µg/mL), the solubility ([2]; pH 7.9, Solubility Conc.) was 188 µM (≈ 413 µg/mL) and the solubility ([2]; pH 8, Solubility Conc.) was 183 µM (≈ 402 µg/mL).
In the case of `CC(=O)N[C@H]1CCSSC[C@@H](C(=O)N2CCC[C@H]2C(=O)N2CCC[C@H]2C(=O)N[C@@H](CCCCN)C(=O)N[C@@H](CC(=O)O)C(=O)N[C@@H](CNC(=O)CN(CC(=O)O)CC(=O)O)C(=O)N[C@@H](CCCCNC(=O)COCCOCCNC(=O)CCCCCCCCCCCCC(=O)O)C(N)=O)NC(=O)[C@H](Cc2c[nH]c3ccccc23)NC(=O)[C@H](CCCNC(=N)N)NC(=O)[C@@H](Cc2ccccc2)NC(=O)[C@H](Cc2c[nH]cn2)NC1=O` [Example 69, Ac-c[homoCys-His-D-Phe-Arg-Trp-Cys]-Pro-Pro-Lys-Asp-Dap(BCMA)-Lys({2-[2-(13-carboxytridecanoylamino)ethoxy]ethoxy}acetyl)-NH2] (Ac-[hCys]H[dF]RWCPPKD[Dap](NTA)K([AEEA-C14 diacid])-NH2; disulfide 1-6), the Ki [1] is reported as > 10 µM.
